Data reported in article PMC5065625, “Structure-mechanism-based engineering of chemical regulators targeting distinct pathological factors in Alzheimer's disease” (Nature Communications, 2016).

Experiments:
[1] = test system: cationic organic radical of ABTS; experiment: Trolox equivalent antioxidant capacity (TEAC) assay in M17 cell lysates; assay type: biochemical, human; conditions: relative to Trolox
Method: The assay employing M17 cell lysates was conducted following the protocol of the antioxidant assay kit purchased from Cayman Chemical Company (Ann Arbor, MI, USA) with minor modifications. For the antioxidant assay using cell lysates, cells were seeded in a six-well plate and grown to ∼80–90% confluence. Cell lysates were prepared following a previously reported method with modifications. M17 cells were washed once with cold PBS (pH 7.4, GIBCO) and harvested by gently pipetting off adherent cells with cold PBS. The cell pellet was generated by centrifugation (2,000g for 10 min at 4 °C). This cell pellet was sonicated on ice (5 s pulses, three times with 20 s intervals between each pulse) in 2 ml of cold Assay Buffer (5 mM potassium phosphate, pH 7.4, containing 0.9% NaCl and 0.1% glucose). The cell lysates were centrifuged at 5,000g for 10 min at 4 °C. The supernatant was removed and stored on ice until use. For standard and samples in 96-well plates, 10 μl of the supernatant of cell lysates was delivered followed by addition of compound, metmyoglobin, ABTS and H2O2 in order. After 5 min incubation at room temperature on a shaker, absorbance values at 750 nm were recorded. The antioxidant concentration was calculated according to the measured absorbance (% inhibition=100 × (A0 – A)/A0, where A0 is absorbance of the supernatant of cell lysates). The measurements were conducted in triplicate.

[2] = Stability in solution (UV–vis, ESI–MS), metal-free; assay type: physicochemical; conditions: for k, metal-free (rate of decay of the absorbance peak) / t1/2, metal-free / Stability in solution: 50 μM; for Stability in solution: metal-free, HEPES pH 7.4, 37 °C, 5 h
Method: (§1) The stability of 1–4 (50 μM) in the absence and presence of CuCl2 (25 μM) was monitored every 10 min using UV–vis for 5 h in buffer ([…], pH 7.4, […]; 1% DMSO) at 37 °C. The resulting spectra were corrected for baseline shifts at 800 nm and the half-life and rate of decay of the absorbance at 250, 385 and 400 nm for 4, [Cu(II)+1], and [Cu(II)+3], respectively, was calculated using the first-order exponential decay function as implemented in Origin 9.1 (OrginLab Corp., Northampton, MA, USA). Additionally, the species present were identified using ESI–MS. Samples containing 1–4 (50 μM) with or without CuCl2 (25 μM) were incubated in ddH2O (1% DMSO) at 37 °C for the selected time points before being freshly frozen using liquid nitrogen and stored at −80 °C until they were thawed immediately before measurement.

[3] = Stability in solution (UV–vis, ESI–MS) in the presence of Cu(II); assay type: physicochemical; conditions: Cu 25 μM; for half-life at 50 μM: HEPES buffer with CuCl2, pH 7.4, compound 50 μM, read-out: t1/2, + Cu(II); for half-life at 50 μM / k, + Cu(II) (rate of decay of the absorbance peak) / t1/2, + Cu(II): HEPES pH 7.4, 37 °C
Method: as §1

Cu(II)–Aβ40/Aβ42 = target: T1, Cu(II)–Aβ40/Aβ42 (Homo sapiens, UniProt P05067); experiment: nESI-MS / IM–MS interaction studies with Cu(II); assay type: binding; conditions: Aβ40 18 μM, copper(II) acetate 40 μM, compound 120 μM, pH 7.5, 37 °C, 30 min
T1 construct: Aβ40 or Aβ42 was dissolved in ammonium hydroxide
Method: All IM–MS experiments were carried out on a Synapt G2 (Waters, Milford, MA)[27][28][29][58]. Samples were ionized using a nano-electrospray source operated in positive ion mode. MS instrumentation was operated at a backing pressure of 2.7 mbar and sample cone voltage of 40 V. The m/z scale was calibrated using 20 mg ml^−1 aqueous cesium iodide. For peptide-metal ligation studies, the aliquots of Aβ peptides (final concentration 18 μM) were sonicated for 5 s before pre-incubation with or without a source of Cu(II) (copper(II) acetate) at 37 °C for 10 min. […] Solution conditions were 100 mM ammonium acetate (pH 7.5) with 1% v/v DMSO. Covalent binding studies with 4 were performed by incubating aliquots of Aβ with the ligand at a ratio of 1:0, 1:5 and 1:25 in water for either 24 h or a week at 25 °C. After incubation the samples were lyophilized for storage until analysis. Immediately before analysis samples were reconstituted to 50 μM peptide concentration in 1,1,1,3,3,3-hexafluoro-2-propanol, sonicated and diluted further to 25 μM for data acquisition. Accurate mass values for ligand-bound complexes were calculated using the monoisotopic peak difference between apo and ligated states with errors reported as a function of two times the s.d. collision cross section (CCS) measurements were externally calibrated using a database of known values in helium, using values for proteins that bracket the likely CCS and ion mobility values of the unknown ions[58][59]. CCS values are the average of six replicates with errors reported as the least square product. This least square analysis combines inherent calibrant error from drift tube measurements (3%)[59]. calibration curve error, and two times the replicate s.d. error. All other conditions are consistent with previously published methods.
Aβ (100 μM) was incubated with 4 (500 μM) in 100 mM ammonium acetate, pH 7.5, without and with the addition of CuCl2 (100 μM) for 1 h at 37 °C without agitation. Before injection into the mass spectrometer, the resulting Aβ was diluted by 10-fold. ESI–MS analysis was performed using a Synapt G2-Si quadrupole time-of-flight mass spectrometer (Waters, Manchester, UK) equipped with electrospray ionization source. The capillary voltage, sampling cone voltage, and source temperature were set to 2.8 kV, 70 V, and 60 °C, respectively. The backing pressure was adjusted to 3.2 mbar.

[4] = HEPES pH 7.4, 150 μM NaCl, 37 °C
[5] = HEPES pH 7.4, 150 μM NaCl, 37 °C, absorbance peak decay

T1 sequence (P05067 672-711): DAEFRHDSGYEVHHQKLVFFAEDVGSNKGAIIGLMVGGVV

Compound	Free organic radical scavenging ability (TEAC) [1]	k, metal-free (rate of decay of the absorbance peak) [2, 4]	t1/2, metal-free [2, 5]	Stability in solution [2]	half-life at 50 μM [3] [min]	k, + Cu(II) (rate of decay of the absorbance peak) ([3]; compound 50 μM)	t1/2, + Cu(II) ([3]; compound 50 μM)	Interaction with Aβ in the presence of Cu(II) (Cu(II)–Aβ40/Aβ42)	half-life at 50 μM ([2]; HEPES buffer, pH 7.4, 50 μM, HEPES pH 7.4, 150 μM NaCl, 37 °C, absorbance peak decay, read-out: t1/2, metal-free) [min]	Stability of the complex with Cu(II) ([3]; compound 50 μM, 5 h)
CN(C)c1ccc(NCc2ccc3ccccc3n2)cc1 [compound 3, N^1,N^1-dimethyl-N^4-(quinolin-2-ylmethyl)benzene-1,4-diamine]	greater capacity than 2	too slow to accurately measure the rate	No noticeable spectral changes were observed over 5 h	changes in its Ultraviolet-Visible (UV-vis) spectra after 5 h of incubation occurring at a very slow rate	53 ± 3	0.013 ± 0.001 min⁻¹	~50 min	Cu–ligand-dependent signals corresponding to a mass 89 Da lighter than the apo Aβ40/Aβ42		
Nc1ccc(NCc2ccccn2)cc1 [compound 1, N^1-(pyridin-2-ylmethyl)benzene-1,4-diamine]	greater capacity than 2	too slow to accurately measure the rate	No noticeable spectral changes were observed over 5 h	stable over 5 h	8 ± 3	0.09 ± 0.03 min⁻¹	~5 min	Cu–ligand-dependent signals corresponding to a mass 89 Da lighter than the apo Aβ40/Aβ42		
CN(C)c1ccc(NCc2ccc[nH]2)cc1 [compound 4, N^1-((1H-pyrrol-2-yl)methyl)-N^4,N^4-dimethylbenzene-1,4-diamine]	greater capacity than 2	0.016 ± 0.004 min⁻¹	~40 min	unstable	< 1	too rapidly to measure		not shown to bind to Aβ40	43 ± 5	
COc1cc(NCc2ccccn2)cc(OC)c1 [compound 2, 3,5-dimethoxy-N-(pyridin-2-ylmethyl)aniline]		too slow to accurately measure the rate	No noticeable spectral changes were observed over 5 h	stable over 5 h		too slow to accurately measure the rate	No noticeable spectral changes were observed over 5 h	stable ternary complexes		without any further transformations over the course of 5 h
